Toxic doses and inconclusive results are not listed. No stated cut-off is given here; in the data, active means T/C of 150% or more; inactive means T/C below 125%.
Tested on: L1210 leukemia ip in BDF1 mice, survival T/C
Experiment: NCI In Vivo Anticancer Drug Screen. Data for tumor model L1210 Leukemia (intraperitoneal) in B6D2F1 (BDF1) mice
Settings: endpoint: mean survival time, higher = longer survival
Procedure, shortened: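 Value reflects the ratio of survival in compound-treated mice to survival in vehicle-treated controls, with both groups carrying the same transplanted tumor.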

Measured: T/C

CCCCOc1ccc(OCCCC)cc1
inactive: dose: 100.0 mg/kg/injection, schedule: Q04DX002 (ip), vehicle: Klucel (hydroxypropylcellulose) (HPC) 105 % of control | dose: 200.0 mg/kg/injection, schedule: Q04DX002 (ip), vehicle: Klucel (hydroxypropylcellulose) (HPC) 97 % of control | dose: 400.0 mg/kg/injection, schedule: Q04DX002 (ip), vehicle: Klucel (hydroxypropylcellulose) (HPC) 101 % of control

CCSC1OC(COS(C)(=O)=O)C(OS(C)(=O)=O)C1NC(C)=O (stereo not given)
inactive: dose: 50.0 mg/kg/injection, schedule: Q01DX001 (ip), vehicle: carboxymethylcellulose (CMC) 97 % of control | dose: 100.0 mg/kg/injection, schedule: Q01DX001 (ip), vehicle: carboxymethylcellulose (CMC) 97 % of control | dose: 200.0 mg/kg/injection, schedule: Q01DX001 (ip), vehicle: carboxymethylcellulose (CMC) 92 % of control | dose: 400.0 mg/kg/injection, schedule: Q01DX001 (ip), vehicle: carboxymethylcellulose (CMC) 97 % of control

O=C(C(=O)N1CC1)c1c[nH]c2ccccc12
inactive: dose: 25.0 mg/kg/injection, schedule: Q04DX003 (ip), vehicle: saline with Tween-80 95 % of control | dose: 50.0 mg/kg/injection, schedule: Q04DX003 (ip), vehicle: saline with Tween-80 91 % of control | dose: 100.0 mg/kg/injection, schedule: Q04DX003 (ip), vehicle: saline with Tween-80 95 % of control

CC(C)[C@]12O[C@H]1[C@@H]1O[C@@]13[C@@]1(C)CCC4=C(COC4=O)[C@@H]1C[C@@H]1O[C@@]13C2=O
inactive: dose: 79.0 micrograms/kg/injection, schedule: Q01DX009 (ip), vehicle: saline 92 % of control | dose: 118.0 micrograms/kg/injection, schedule: Q01DX009 (ip), vehicle: saline 105 % of control | dose: 178.0 micrograms/kg/injection, schedule: Q01DX009 (ip), vehicle: saline 99 % of control | dose: 267.0 micrograms/kg/injection, schedule: Q01DX009 (ip), vehicle: saline 101 % of control | dose: 400.0 micrograms/kg/injection, schedule: Q01DX009 (ip), vehicle: saline 108 % of control

— PubChem BioAssay AID248 (DTP/NCI, 2004)
